Source: PubChem BioAssay (NCI)
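All cell lines were grown in 96-well plates and treated with compound for 48 hours. Here, GI50 denotes the concentration required for 50% inhibition of growth. TGI denotes the concentration required for complete inhibition of growth.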

Experiments:
Experiment in all cases: NCI-60 cell line screen, 48 h; in the data active = GI50 below about 0.43 µM; inactive = the rest
LOX IMVI melanoma = system: LOX IMVI melanoma
OVCAR-8 ovarian = system: OVCAR-8 ovarian
HCC-2998 colon = system: HCC-2998 colon
UACC-62 melanoma = system: UACC-62 melanoma
A549 NSCLC = system: A549 NSCLC
SK-OV-3 ovarian = system: SK-OV-3 ovarian
UO-31 renal = system: UO-31 renal
SF-295 CNS = system: SF-295 CNS
HOP-92 NSCLC = system: HOP-92 NSCLC
MDA-MB-231 breast = system: MDA-MB-231 breast
HS 578T breast = system: HS 578T breast
SK-MEL-28 melanoma = system: SK-MEL-28 melanoma
MDA-MB-435 = system: MDA-MB-435
SK-MEL-5 melanoma = system: SK-MEL-5 melanoma
ACHN renal = system: ACHN renal
HL-60(TB) leukemia = system: HL-60(TB) leukemia
SN12C renal = system: SN12C renal
SF-268 CNS = system: SF-268 CNS
RPMI-8226 leukemia = system: RPMI-8226 leukemia
HT29 colon = system: HT29 colon
SR leukemia = system: SR leukemia
M14 melanoma = system: M14 melanoma
UACC-257 melanoma = system: UACC-257 melanoma
K-562 leukemia = system: K-562 leukemia
SF-539 CNS = system: SF-539 CNS
HCT-116 colon = system: HCT-116 colon
A498 renal = system: A498 renal
HCT-15 colon = system: HCT-15 colon
PC-3 prostate = system: PC-3 prostate
OVCAR-3 ovarian = system: OVCAR-3 ovarian
SW-620 colon = system: SW-620 colon
SNB-19 CNS = system: SNB-19 CNS
IGROV1 ovarian = system: IGROV1 ovarian
NCI-H522 lung = system: NCI-H522 lung
786-0 renal = system: 786-0 renal
EKVX NSCLC = system: EKVX NSCLC
NCI-H23 lung = system: NCI-H23 lung
CAKI-1 renal = system: CAKI-1 renal
NCI-H226 lung = system: NCI-H226 lung
MOLT-4 leukemia = system: MOLT-4 leukemia
U251 CNS = system: U251 CNS
BT-549 breast = system: BT-549 breast
KM12 colon = system: KM12 colon
HOP-62 NSCLC = system: HOP-62 NSCLC
T-47D breast = system: T-47D breast
OVCAR-5 ovarian = system: OVCAR-5 ovarian
SK-MEL-2 melanoma = system: SK-MEL-2 melanoma
MCF7 breast = system: MCF7 breast
MALME-3M melanoma = system: MALME-3M melanoma
OVCAR-4 ovarian = system: OVCAR-4 ovarian
NCI/ADR-RES ovarian = system: NCI/ADR-RES ovarian
RXF 393 renal = system: RXF 393 renal
TK-10 renal = system: TK-10 renal
DU-145 prostate = system: DU-145 prostate
CCRF-CEM leukemia = system: CCRF-CEM leukemia
SNB-75 CNS = system: SNB-75 CNS
COLO 205 colon = system: COLO 205 colon
MDA-MB-468 breast = system: MDA-MB-468 breast
NCI-H460 lung = system: NCI-H460 lung

CCCCSc1nc(Nc2ccc(/C(C)=N/NC(N)=S)cc2)c(C#N)c(-c2ccc(OC)cc2)n1
28.5 µM: TGI (ACHN renal)
17.9 µM: TGI (LOX IMVI melanoma)
17 µM: TGI (SK-MEL-5 melanoma)
36.7 µM: TGI (T-47D breast)
22.6 µM: TGI (SF-295 CNS)
31.1 µM: TGI (NCI-H460 lung)
28.6 µM: TGI (NCI-H522 lung)
40.9 µM: TGI (A549 NSCLC)
27.3 µM: TGI (SNB-19 CNS)
34.1 µM: TGI (UACC-62 melanoma)
85.4 µM: TGI (SK-MEL-2 melanoma)
21.1 µM: TGI (HOP-92 NSCLC)
37 µM: TGI (SN12C renal)
19 µM: TGI (NCI-H23 lung)
16.4 µM: TGI (HS 578T breast)
78.3 µM: TGI (SNB-75 CNS)
26.9 µM: TGI (BT-549 breast)
19.9 µM: TGI (U251 CNS)
> 100 µM: TGI (HCC-2998 colon) | TGI (SK-MEL-28 melanoma) | TGI (MDA-MB-435) | TGI (HL-60(TB) leukemia) | TGI (SF-268 CNS) | TGI (RPMI-8226 leukemia) | TGI (HT29 colon) | TGI (SR leukemia) | TGI (M14 melanoma) | TGI (UACC-257 melanoma) | TGI (K-562 leukemia) | TGI (HCT-15 colon) | TGI (PC-3 prostate) | TGI (SW-620 colon) | TGI (EKVX NSCLC) | TGI (MOLT-4 leukemia) | TGI (KM12 colon) | TGI (MCF7 breast) | TGI (NCI/ADR-RES ovarian) | TGI (DU-145 prostate) | TGI (CCRF-CEM leukemia) | TGI (COLO 205 colon)
24 µM: TGI (OVCAR-8 ovarian)
18.6 µM: TGI (UO-31 renal)
44.3 µM: TGI (OVCAR-3 ovarian)
27.5 µM: TGI (NCI-H226 lung)
10.9 µM: TGI (786-0 renal)
54.1 µM: TGI (CAKI-1 renal)
40 µM: TGI (IGROV1 ovarian)
62.4 µM: TGI (OVCAR-4 ovarian)
49.1 µM: TGI (MDA-MB-468 breast)
inactive: GI50 (LOX IMVI melanoma) 3.9 µM | GI50 (OVCAR-8 ovarian) 10.8 µM | GI50 (HCC-2998 colon) 78.4 µM | GI50 (UACC-62 melanoma) 15.6 µM | GI50 (A549 NSCLC) 16.5 µM | GI50 (SK-OV-3 ovarian) 18 µM | GI50 (UO-31 renal) 2.81 µM | GI50 (SF-295 CNS) 10.1 µM | GI50 (HOP-92 NSCLC) 5.36 µM | GI50 (MDA-MB-231 breast) 2.27 µM | GI50 (HS 578T breast) 2.78 µM | GI50 (SK-MEL-28 melanoma) 35.8 µM | GI50 (MDA-MB-435) 36.9 µM | GI50 (SK-MEL-5 melanoma) 3.61 µM | GI50 (ACHN renal) 15.3 µM | GI50 (HL-60(TB) leukemia) > 100 µM | GI50 (SN12C renal) 18.7 µM | GI50 (SF-268 CNS) 26 µM | GI50 (RPMI-8226 leukemia) 45.7 µM | GI50 (HT29 colon) > 100 µM | GI50 (SR leukemia) 57.1 µM | GI50 (M14 melanoma) 8.52 µM | GI50 (UACC-257 melanoma) > 100 µM | GI50 (K-562 leukemia) > 100 µM | GI50 (SF-539 CNS) 3.14 µM | GI50 (HCT-116 colon) 6.79 µM | GI50 (A498 renal) 10.6 µM | GI50 (HCT-15 colon) > 100 µM | GI50 (PC-3 prostate) > 100 µM | GI50 (OVCAR-3 ovarian) 21.5 µM | GI50 (SW-620 colon) > 100 µM | GI50 (SNB-19 CNS) 14.3 µM | GI50 (IGROV1 ovarian) 19.5 µM | GI50 (NCI-H522 lung) 13.9 µM | GI50 (786-0 renal) 3.07 µM | GI50 (EKVX NSCLC) 56.4 µM | GI50 (NCI-H23 lung) 6.46 µM | GI50 (CAKI-1 renal) 18.3 µM | GI50 (NCI-H226 lung) 11.9 µM | GI50 (MOLT-4 leukemia) > 100 µM | GI50 (U251 CNS) 6.88 µM | GI50 (BT-549 breast) 6.55 µM | GI50 (KM12 colon) > 100 µM | GI50 (HOP-62 NSCLC) 15.6 µM | GI50 (T-47D breast) 12.5 µM | GI50 (OVCAR-5 ovarian) 28.1 µM | GI50 (SK-MEL-2 melanoma) 26.3 µM | GI50 (MCF7 breast) 17.1 µM | GI50 (MALME-3M melanoma) 5.85 µM | GI50 (OVCAR-4 ovarian) 6.45 µM | GI50 (NCI/ADR-RES ovarian) 5.76 µM | GI50 (RXF 393 renal) 5.2 µM | GI50 (TK-10 renal) 13.8 µM | GI50 (DU-145 prostate) 10.2 µM | GI50 (CCRF-CEM leukemia) > 100 µM | GI50 (SNB-75 CNS) 10.4 µM | GI50 (COLO 205 colon) > 100 µM | GI50 (MDA-MB-468 breast) 18.1 µM | GI50 (NCI-H460 lung) 9.33 µM
12.8 µM: TGI (SF-539 CNS)
27.4 µM: TGI (TK-10 renal)
93.9 µM: TGI (OVCAR-5 ovarian)
30.1 µM: TGI (HOP-62 NSCLC)
30 µM: TGI (HCT-116 colon)
18.1 µM: TGI (RXF 393 renal)
22.4 µM: TGI (A498 renal)
8.21 µM: TGI (MDA-MB-231 breast)
20 µM: TGI (MALME-3M melanoma)
32.1 µM: TGI (SK-OV-3 ovarian)
